Measurements as given in article PMC4337820 (Journal of medicinal chemistry, 2015).
Read-outs that look alike come from different tables or passages of the source.

How the values were obtained:
[1] = test system: T.b. rhodesiense, strain STIB 900 trypomastigotes; assay: In vitro activity against T. b. rhodesiense; format: cell-based; conditions: for anti-HAT activity class (TDR criteria): BSF T. b. rhodesiense
[2] = test system: T. cruzi, strain Tulahuen C4 amastigotes; assay: In vitro activity against T. cruzi amastigotes; format: cell-based; conditions: for antichagasic activity class (TDR criteria): T. cruzi amastigotes; for Bnz/comp: fold potency against T. cruzi relative to Bnz; for SI (IC50 in L6 cells/IC50 in T. cruzi): selectivity index vs L6 cells
[3] = test system: L6 cells (rat skeletal myoblasts); assay: Cytotoxicity in host L6 cells; format: cell-based
[4] = test system: Chagas disease; conditions: cited from earlier work; for cure rates, chronic stage: adults in the chronic stage
[5] = test system: blood stream form T. b. brucei parasites overexpressing TbNTR; assay: Susceptibility of blood stream form T. b. brucei with or without elevated TbNTR; format: cell-based
[6] = biological target: T1, T. cruzi CYP51 (Trypanosoma cruzi, UniProt Q7Z1V1); assay: Reconstituted CYP51 reaction inhibition; format: biochemical; conditions: compound 19: at high I/E ratios (≥ 20)
T1 sequence (Q7Z1V1 whole entry): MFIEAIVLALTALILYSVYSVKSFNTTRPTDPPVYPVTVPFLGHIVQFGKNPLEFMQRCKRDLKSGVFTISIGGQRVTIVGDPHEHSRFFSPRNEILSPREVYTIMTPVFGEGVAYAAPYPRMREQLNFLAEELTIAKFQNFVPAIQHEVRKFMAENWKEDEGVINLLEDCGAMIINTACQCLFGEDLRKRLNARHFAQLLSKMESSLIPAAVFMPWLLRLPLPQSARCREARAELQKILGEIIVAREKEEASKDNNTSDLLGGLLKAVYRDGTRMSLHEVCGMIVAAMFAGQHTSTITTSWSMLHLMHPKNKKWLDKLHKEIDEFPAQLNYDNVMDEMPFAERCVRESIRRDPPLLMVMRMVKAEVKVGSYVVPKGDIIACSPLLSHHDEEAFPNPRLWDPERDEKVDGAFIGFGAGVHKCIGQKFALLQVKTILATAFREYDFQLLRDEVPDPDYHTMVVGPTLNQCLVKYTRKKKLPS

[7] = test system: transgenic T. cruzi parasites expressing firefly luciferase; assay: In vivo antichagasic activity, acute T. cruzi infected murine model; conditions: i.p., 15 mg/kg/day (compound 5: 13 mg/kg/day)
[8] = test system: Caco-2 cells; assay: Caco-2 monolayer permeability; format: in vitro ADME; conditions: 10 μM, 2 h
[9] = biological target: T1, T. cruzi CYP51; assay: Spectral titration binding to T. cruzi CYP51; conditions: TcCYP51 spectral response
[10] = polar surface area, predicted; cited from earlier work
[11] = test system: L6 cells (rat skeletal myoblasts); conditions: read-out: Cytotox. L6 IC-50; host L6 cells; cited from earlier work
[12] = test system: T.b. rhodesiense, strain STIB 900 trypomastigotes; conditions: cited from earlier work
[13] = test system: T. cruzi, strain Tulahuen C4 amastigotes; conditions: cited from earlier work
[14] = Caco-2 monolayer permeability; format: in vitro ADME; conditions: human, Caco-2
[15] = read-out: T.b.rhod. IC-50, strain STIB 900 trypomastigotes
[16] = read-out: T.cruzi IC-50, strain Tulahuen C4 amastigotes

Molecule: 1-(4-phenylphenyl)-2-(1H-1,2,4-triazol-1-yl)ethan-1-one [Compound 11]
- IC50 [1, 15]: 1.75 µM
- SI (IC50 in L6 cells/IC50 in T.b. rhodesiense) ([1]; selectivity index vs L6 cells): 125
- antichagasic activity class (TDR criteria) [2]: active
- Bnz/comp [2]: 11.9
- IC50 [2, 16]: 0.188 µM
- SI (IC50 in L6 cells/IC50 in T. cruzi) [2]: 1164
- IC50 [3]: 220 µM

Molecule: O=C(Cn1ccnc1[N+](=O)[O-])NCc1ccccc1 [Bnz, N-benzyl-2-(2-nitro-1H-imidazol-1-yl)acetamide]
- cure rates, acute phase ([4]; acute phase of Chagas disease): 65-80%
- cure rates, chronic stage [4]: 15-30%

Molecule: N#Cc1ccc(-c2ccc(NC(=O)Cn3cnc([N+](=O)[O-])n3)cc2)cc1 [Compound 2, N-[4-(4-cyanophenyl)phenyl]-2-(3-nitro-1H-1,2,4-triazol-1-yl)acetamide]
- fold more susceptible, TbNTR-overexpressing vs non-induced parasites [5]: 2 to 3 fold
- reversibility of TcCYP51 inhibition [6]: reversible
- anti-HAT activity class (TDR criteria) [1]: active
- Bnz/comp [2]: 10.77
- parasite levels after 5 days of treatment [7]: undetectable levels
- Caco 2 permeability ranking [8]: high

Molecule: O=C(Cn1cnc([N+](=O)[O-])n1)Nc1nc(-c2ccc(Cl)cc2)cs1 [Compound 3, N-[4-(4-chlorophenyl)-1,3-thiazol-2-yl]-2-(3-nitro-1H-1,2,4-triazol-1-yl)acetamide]
- antichagasic activity class (TDR criteria) [2]: active
- Bnz/comp [2]: 7.24

Molecule: O=C(Cn1cnc([N+](=O)[O-])n1)Nc1nnc(-c2ccc(Cl)cc2)s1 [Compound 4, N-[5-(4-chlorophenyl)-1,3,4-thiadiazol-2-yl]-2-(3-nitro-1H-1,2,4-triazol-1-yl) acetamide]
- anti-HAT activity class (TDR criteria) [1]: did not show any anti-HAT activity
- Bnz/comp [2]: 0.04

Molecule: O=C(Cn1cnc([N+](=O)[O-])n1)Nc1ccc(-c2ccc(Cl)cc2)cc1 [Compound 5, N-(4′-chloro-[1,1′-biphenyl]-4-yl)-2-(3-nitro-1H-1,2,4-triazol-1-yl)acetamide]
- factor of increased efficacy against T. cruzi compared to analog 2 [2]: 3 fold
- parasite levels after 5 days of treatment [7]: undetectable levels

Molecule: O=C(Cn1cnc([N+](=O)[O-])n1)Nc1nc(-c2ccc(F)c(F)c2)cs1 [Compound 6, N-(4-(3,4-difluorophenyl)thiazol-2-yl)-2-(3-nitro-1H-1,2,4-triazol-1-yl)acetamide]
- anti-HAT activity class (TDR criteria) [1]: inactive
- antichagasic activity class (TDR criteria) [2]: active
- Bnz/comp [2]: 4.42

Molecule: O=C(Cn1ccnc1[N+](=O)[O-])Nc1nc(-c2ccc(F)c(F)c2)cs1 [Compound 7, N-(4-(3,4-difluorophenyl)thiazol-2-yl)-2-(2-nitro-1H-imidazol-1-yl)acetamide]
- anti-HAT activity class (TDR criteria) [1]: inactive
- fold less active against T. cruzi compared to 6 [2]: about 8.7 fold
- antichagasic activity class (TDR criteria) [2]: borderline active
- Bnz/comp [2]: 0.51

Molecule: Cc1nc(-c2cccc(NC(=O)Cn3cnc([N+](=O)[O-])n3)c2)cs1 [Compound 8, N-(3-(2-methylthiazol-4-yl)phenyl)-2-(3-nitro-1H-1,2,4-triazol-1-yl)acetamide]
- antichagasic activity class (TDR criteria) [2]: active
- Bnz/comp [2]: 3.67

Molecule: O=C(Cn1cnc([N+](=O)[O-])n1)Nc1ccc(N2CCCCC2)cc1 [Compound 9, 2-(3-nitro-1H-1,2,4-triazol-1-yl)-N-(4-(piperidin-1-yl)phenyl)acetamide]
- anti-HAT activity class (TDR criteria) [1]: inactive
- antichagasic activity class (TDR criteria) [2]: active
- Bnz/comp [2]: 3.66

Molecule: O=C(Cn1cnc([N+](=O)[O-])n1)c1ccc(F)cc1F [Compound 10, 1-(2,4-difluorophenyl)-2-(3-nitro-1H-1,2,4-triazol-1-yl)ethan-1-one]
- antichagasic activity class (TDR criteria) [2]: active
- Bnz/comp [2]: 1.29

Molecule: CC(O)(Cn1cnc([N+](=O)[O-])n1)c1ccc(-n2ccnc2)cc1 (stereo not shown) [Compound 14, 2-[4-(1H-imidazol-1-yl)phenyl]-1-(3-nitro-1H-1,2,4-triazol-1-yl)propan-2-ol]
- fold less potent against T. cruzi than 17 [2]: 32 fold
- antichagasic activity class (TDR criteria) [2]: active
- Bnz/comp [2]: 0.68

Molecule: CC(O)(Cn1cncn1)c1ccc(-n2ccnc2)cc1 (stereo not shown) [Compound 15, 2-[4-(1H-imidazol-1-yl)phenyl]-1-(1H-1,2,4-triazol-1-yl)propan-2-ol]
- anti-HAT activity class (TDR criteria) [1]: inactive

Molecule: CC(O)(Cn1cncn1)c1ccc(-c2ccccc2)cc1 (stereo not shown) [Compound 16, 2-(4-phenylphenyl)-1-(1H-1,2,4-triazol-1-yl)propan-2-ol]
- anti-HAT activity class (TDR criteria) [1]: inactive
- fold less potent against T. cruzi than 17 [2]: 7 fold
- antichagasic activity class (TDR criteria) [2]: active
- Bnz/comp [2]: 3.17

Molecule: CC(O)(Cn1cnc([N+](=O)[O-])n1)c1ccc(-c2ccccc2)cc1 (stereo not shown) [Compound 17, 1-(3-nitro-1H-1,2,4-triazol-1-yl)-2-(4-phenylphenyl)propan-2-ol]
- Bnz/comp [2]: 21.94

Molecule: O=[N+]([O-])c1ncn(CC(O)(Cn2cncn2)c2ccc(F)cc2F)n1 (stereo not shown) [Compound 18, 2-(2,4-difluorophenyl)-1-(3-nitro-1H-1,2,4-triazol-1-yl)-3-(1H-1,2,4-triazol-1-yl)-propan-2-ol]
- fold less potent against T. cruzi than 19 [2]: 36 fold
- fold more potent against T. cruzi than fluconazole [2]: 8.5 fold
- Bnz/comp [2]: 1.81

Molecule: O=[N+]([O-])c1ncn(CC(O)(Cn2cncn2)c2ccc(-c3ccccc3)cc2)n1 (stereo not shown) [Compound 19, 1-(3-nitro-1H-1,2,4-triazol-1-yl)-2-(4-phenylphenyl)-3-(1H-1,2,4-triazol-1-yl)propan-2-ol]
- reversibility of TcCYP51 inhibition [6]: irreversible
- apparent Kd, fold stronger than fluconazole [9]: 10 fold
- Caco 2 permeability ranking [8]: high

Molecule: Fc1ccc(C2(Cn3cncn3)Cn3ccnc3O2)c(F)c1 (stereo not shown) [Compound 20, 1-{[2-(2,4-difluorophenyl)-2H,3H-imidazo[2,1-b][1,3]oxazol-2-yl]methyl}-1H-1,2,4-triazole]
- fold less potent against T. cruzi than 18 [2]: about 5 fold
- Bnz/comp [2]: 0.35
- SI (IC50 in L6 cells/IC50 in T. cruzi) [2]: >49.4

Molecule: Cc1ccc(S(=O)(=O)NC(Cc2ccccc2)Cn2cnc([N+](=O)[O-])n2)cc1 (stereo not shown) [Compound 21, 4-Methyl-N-[1-(3-nitro-1H-1,2,4-triazol-1-yl)-3-phenylpropan-2-yl]benzene-1-sulfonamide]
- fold less potent against T. cruzi than 17 [2]: about 3 fold
- antichagasic activity class (TDR criteria) [2]: active
- Bnz/comp [2]: 1.7

Molecule: O=[N+]([O-])c1ncn(CCCNS(=O)(=O)c2ccc(Cl)s2)n1 [Compound 23]
- PSA [10]: 122.7 Å^2
- IC50 [11]: 244 µM
- IC50 [12, 15]: 1.99 µM
- SI (IC50 in L6 cells/IC50 in T.b. rhodesiense) ([12]; selectivity index vs L6 cells): 122
- Bnz/comp ([13]; fold potency against T. cruzi relative to Bnz): 3.6
- IC50 [13, 16]: 0.438 µM
- SI (IC50 in L6 cells/IC50 in T. cruzi) ([13]; selectivity index vs L6 cells): 556

Molecule: Nc1nc(N)nc(Nc2ccc([As]3SCC(CO)S3)cc2)n1 (stereo not shown) [Melars., Melarsoprol, reference compound]
- IC50 ([1]; Trypanosoma brucei, RHODESIENSE|STIB900, read-out: T.b.rhod. IC-50): 0.007 ± 0.001 µM

Molecule: CC1CS(=O)(=O)CCN1/N=C/c1ccc([N+](=O)[O-])o1 (stereo not shown) [Nfx, 4-(5-nitrofurfurylindenamino)-3-methylthio-morpholine-1,1-dioxide]
- cure rates, chronic stage [4]: 15-30%

Molecule: CNC(=C[N+](=O)[O-])NCCSCc1ccc(CN(C)C)o1 [Ranitidine, reference compound]
- Papp A→B at 2 h, 10 µM [14]: 0.24 ×10⁻⁶ cm/s

Molecule: CC[C@@H]([C@H](C)O)n1ncn(-c2ccc(N3CCN(c4ccc(OC[C@@H]5CO[C@@](Cn6cncn6)(c6ccc(F)cc6F)C5)cc4)CC3)cc2)c1=O [posaconazole]
- treatment failure ([4]; clinical trials, human patients with chronic Chagas disease): ~80%
